pEC50: −log10 of the molar value.

Data set [1] can be described thus: Cytotoxicity in MDBK cells assessed as reduction in cell viability. Format: cell-based, Bos taurus. The settings on record: cattle.
Data set [2] in a line: Selectivity index, ratio of CC50 for MDBK cells to EC50 for antiviral activity against BVDV1 Nose.
The subject of data set [3] is Bovine viral diarrhea virus 1. The data set is described as follows: Antiviral activity against BVDV1 Nose infected in MDBK cells assessed as inhibition of virus replication-induced cell destruction. It counts as functional, organism-based. The settings on record: Bovine viral diarrhea virus isolates and strains.

A word on the CC50: it is the concentration giving 50% cytotoxicity. A word on the pEC50: it is the negative decadic logarithm of the EC50, by convention in mol/L. `CCC(CC)(c1ccc(NCC(O)C(C)(C)C)c(C)c1)c1ccc(OC[C@@H](O)CO)c(C)c1` (stereo partly drawn): the CC50 in data set [1] is 43 µM. For the same compound, the “Ratio CC50/EC50” value in data set [2] stood at 1.72. Moreover, in data set [3], the pEC50 is 4.60.
As for `CCC(CC)(c1ccc(OCC(=O)C(C)(C)C)c(C)c1)c1ccc(N(CC(=O)C(C)(C)C)Cc2ccccc2)c(C)c1`, the CC50 in data set [1] was more than 100 µM. Further, the pEC50 in data set [3] is 4.55.
Taken in the same sequence, the figures for `CCC(CC)(c1ccc(O)c(C)c1)c1ccc(OCC(=O)C(C)(C)C)c(C)c1` were 5.23 µM and 5.07.
Regarding `CCC(CC)(c1ccc(O)cc1)c1ccc(O)cc1`, in data set [1], the CC50 worked out at 39 µM. Further, the “Ratio CC50/EC50” value in data set [2] is 3.9. Moreover, the pEC50 in data set [3] is 5.00.
Turning to `Nc1ccc(C2(c3ccc(O)cc3)CCCCC2)cc1`, the CC50 in data set [1] is 42 µM. The pEC50 in data set [3] was less than 4.38.
As for `Cc1cc(C(C)(C)c2ccc(OCC(=O)C(C)(C)C)c(C)c2)ccc1OCC(=O)C(C)(C)C`, the CC50 in data set [1] was more than 100 µM. For the same compound, in data set [3], the pEC50 is 4.92.
For `Cc1cc(C2(c3ccc(OCC(=O)C(C)(C)C)c(C)c3)CCC2)ccc1OCC(=O)C(C)(C)C`, the 50% cytotoxic concentration (CC50) in data set [1] was more than 100 µM. Also, the pEC50 in data set [3] was 5.20.
`Cc1cc(C2(c3ccc(OCC(=O)C(C)(C)C)c(C)c3)CCCC2)ccc1OCC(=O)C(C)(C)C`: the CC50 in data set [1] is more than 100 µM. Also, the pEC50 in data set [3] was 4.89.
Consider `Cc1cc([Si](C)(C)c2ccc(OCC(=O)C(C)(C)C)c(C)c2)ccc1OCC(=O)C(C)(C)C`, for which, in data set [1], the half-maximal cytotoxic concentration (CC50) is more than 100 µM. Also, the pEC50 in data set [3] is 4.89.
On to `CC[Si](CC)(c1ccc(OCC(=O)C(C)(C)C)c(C)c1)c1ccc(OCC(=O)C(C)(C)C)c(C)c1`, for which the CC50 in data set [1] was more than 100 µM. Also, the pEC50 in data set [3] was 5.08.
For the compound `CC[Si](CC)(c1ccc(OCC(=O)C(C)(C)C)cc1)c1ccc(OCC(=O)C(C)(C)C)cc1`, the CC50 in data set [1] is more than 100 µM. In addition, the pEC50 in data set [3] was 5.21.
For the compound `CC[Si](CC)(c1ccc(O)cc1)c1ccc(OCC(=O)C(C)(C)C)cc1`, the CC50 in data set [1] turned out to be 46.8 µM. In addition, in data set [2], the “Ratio CC50/EC50” value amounted to 5.85. In addition, the pEC50 in data set [3] is 5.10.
On to `CCC(CC)(c1ccc(NCC(=O)C(C)(C)C)c(C)c1)c1ccc(OCC(=O)C(C)(C)C)c(C)c1`, for which the CC50 in data set [1] came out at 82 µM. Also, in data set [2], the “Ratio CC50/EC50” value stood at 9.21. In addition, the pEC50 in data set [3] is 5.05.
Turning to `CCN(CC)C(=O)Oc1ccc(C(CC)(CC)c2ccc(NC(C)=O)c(C)c2)cc1C`, in data set [1], the CC50 was 50 µM. The “Ratio CC50/EC50” value in data set [2] was determined as 5. For the same compound, in data set [3], the negative logarithm of the EC50 (pEC50) was 5.00.

The values above are taken from ChEMBL document CHEMBL1782006, “Discovery of diphenylmethane analogs as anti-bovine diarrhea viral agents” (Bioorg Med Chem Lett, 2009).
